The record followed here is paper PMC2756574, “Crystal Structures of Multidrug Binding Protein TtgR in Complex with Antibiotics and Plant Antimicrobials” (Journal of Molecular Biology, 2007).

The target in test [1] is TtgR (Pseudomonas putida, UniProt Q9AIU0, R176G). In words: biochemical.
Test [2] has as its target T1, TtgR (Pseudomonas putida, UniProt Q9AIU0).
T1 construct: full-length, ttgR in pET29a+, expressed in E. coli B834(DE3); heparin and gel filtration purification; homodimer; residues about 10-210 seen in crystals
In words: isothermal titration calorimetry. It counts as binding. For orientation: In ITC the heat of successive injections is recorded.

Test [3] concerns the target T1, TtgR. In words: X-ray crystal structure of complex. Particulars: general binding site, 2 per dimer; co-crystal, 2.4 Å.

The structures appear in SMILES notation.

Take `O=C(CCc1ccc(O)cc1)c1c(O)cc(O)cc1O` [phloretin]: the Kd in test [1] turned out to be 9.2 ± 0.5 µM; in test [2], 50 ± 10 nM. Take `O=c1c(O)c(-c2ccc(O)c(O)c2)oc2cc(O)cc(O)c12` [quercetin]: the “X-ray crystal structure of complex” value in test [3] was “Both effectors bind at similar locations to the hydrophobic binding site as tetracycline and chloramphenicol”.

By Kd is commonly meant the equilibrium constant for the complex coming apart.
